Measurements reported in article PMC9804910 (Chembiochem, 2022).

Key:
[1] = tested on: PC‐3 (human prostate adenocarcinoma); assay: Fluorometric cell viability assay (Resazurin), 2D monolayer; type: cell-based; conditions: PC‐3, 48 h
Procedure: (§1) The first step toward the biological investigation of complexes 3–8 was the evaluation of cell viability in monolayer cultures of CT‐26 (mouse colon adenocarcinoma), PC‐3 (human prostate adenocarcinoma), and RPE‐1 (human normal retina pigmented epithelial) cell lines using a fluorometric cell viability assay with the Resazurin reagent. Cisplatin and 1 were tested in the same cell lines as positive and additional controls.
(§2) Cell cultures: The CT‐26 cell line was cultured in DMEM media (Gibco) supplemented with 10 % foetal calf serum (Gibco) and 1 % penicillin‐streptomycin antibiotic (Gibco). The PC‐3 cell line was cultured in F12‐K media (Gibco) supplemented with 10 % foetal calf serum (Gibco) and 1 % Penicillin‐Streptomycin antibiotic (Gibco). The RPE‐1 cell line was cultured in DMEM/F‐12 media (Gibco) supplemented with 10 % foetal calf serum and 1 % Penicillin‐Streptomycin antibiotic (Gibco). Cell lines were maintained in a humidified atmosphere at 37 °C with 5 % CO2.
(§3) Cytotoxicity assay using a 2D cellular model: The cytotoxicity of the tested Ru complexes was assessed by a fluorometric cell viability assay using Resazurin (Acros Organics). Briefly, cells were seeded in triplicate in 96‐well plates at a 4×10^3 cells/ well density in 100 μL. After 24 h, cells were treated with increasing concentrations of the ruthenium complexes and controls. Dilutions for complexes 3–8 were prepared as follows: 10 mM stock solution in DMSO was diluted to 100–0.01 μM with medium. After 48 h of incubation, the medium was removed, and 100 μL of complete medium containing resazurin (0.2 mg/mL final concentration) was added. After 4 h of incubation at 37 °C, the fluorescence signal of the resorufin product was read (ex 540 nm, em 590 nm) in an Infinite 200 PRO Microplate Reader from TECAN. IC50 values were then calculated using GraphPad Prism software.

[2] = tested on: RPE‐1 (human normal retina pigmented epithelial); assay: as above; type: cell-based; conditions: RPE‐1, 48 h
Procedure: as §1, §2, §3

[3] = tested on: CT‐26 (mouse colon adenocarcinoma); assay: as above; type: cell-based; conditions: for IC50: CT‐26, 48 h
Procedure: as §1, §2, §3

HeLa cells = tested on: HeLa cells; parameters: method as in PMID 32065454; conditions: cited from earlier work
CT‐26 cells [4] = assay: Mito stress test (Seahorse, oxygen consumption rate); type: cell-based, mouse; conditions: CT‐26, 24 h treatment; 1 (1 μM), 3 (5 μM), 4 (0.5 μM), 5 (10 μM), 6 (25 μM), 7 (10 μM), 8 (25 μM)
Procedure: To further study the mechanism of action of complexes 3–8, their influence on the cellular metabolism of CT‐26 cells was investigated. Figure 6 represents the Mito stress test profile after 24 h of treatment; the oxygen consumption rate (OCR) changes with specific electron‐transport chain inhibitors. Oligomycin (inhibitor of ATP synthase (complex V)), FCCP (uncoupling agent), antimycin‐A (complex III inhibitors), and rotenone (complex I inhibitor) were employed in this study. In general, both cationic compounds 4 and 7 affected the mitochondrial processes. It is evident from the low basal respiration and the inhibition of ATP production compared to untreated cells (orange dots) that the mitochondrial membrane of the cells treated with such complexes lost the capacity to restore the proton balance when treated with an uncoupling agent (FCCP). The maximal respiration (the OCR value when the mitochondrial membrane is uncoupled) and spare respiratory capacity (difference in the OCR values between maximal respiration and basal respiration) of the cells were reduced compared to those of untreated cells (Figure 6). […] The results with complex 4 are consistent with its measured large mitochondrial uptake (see above).
Metabolic studies: mito stress test: CT‐26 cells were seeded in Seahorse XFe 96‐ well plates at a density of 20 000 cells/well in 80 μL of the medium. After 24 h, the medium was replaced with fresh medium, and either complex 1 (1 μM), 3 (5 μM), 4 (0.5 μM), 5 (10 μM), 6 (25 μM), 7 (10 μM), or 8 (25 μM) was added. After 24 h of incubation, the regular medium was removed, and cells were washed three times using Seahorse base media and incubated in a non‐CO2 incubator at 37 °C for 1 h. A Mito stress assay was run using 1 μM oligomycin, 1 μM FCCP, and a mixture of 1 μM antimycin‐A/1 μM rotenone in ports A−C, respectively, using a Seahorse XFe96 extracellular flux analyser.

CT‐26 cells [5] = assay: Cellular fractionation (mitochondria and nucleus isolation, Ru content); type: cell-based, mouse; conditions: CT‐26, 5 μM, 4 h
Procedure: Additionally, we choose the best candidate from the cytotoxicity experiments, namely [Ru(DIP)2(η^2‐acac)]Cl (4), to explore its cellular localisation. For this, we performed cellular fractionation experiments to ascertain in which organelle it localizes.
Sample preparation for cellular fractionation: CT‐26 cells were seeded in three 15 cm^2 cell culture dishes and cells were 90 % confluent on the day of treatment. On the day of treatment, cells were incubated with the target complex at a concentration of 5 μM for 4 h, then the medium was removed and the cells were washed, collected, and counted. After re‐suspension in cold PBS, the organelles were isolated by using different protocols (one cell culture dish per isolation was used).
Mitochondria and nucleus isolation : To isolate mitochondria, a Mitochondria Isolation Kit (Cat. Nr: MITOISO2, SigmaAldrich) and Nucleus Isolation Kit (NUC‐101) were used according to the manufacturer procedure for the isolation of mitochondria via homogenization method.

CT‐26 cells [6] = assay: ICP‐MS cellular uptake; type: cell-based, mouse
Procedure: The cellular uptake of the complexes 3–8 was then investigated in CT‐26 cells by determining the amount of Ru inside the cells using inductively coupled plasma mass spectrometry (ICP‐MS) after 2 h of incubation at 5 μM. […] This is most probably due to the higher lipophilicity of the DIP ligand compared to phen. […] In contrast, the neutral complexes with the DIP ligand (3 and 5) present a lower uptake (ca. 50 %) compared the phen analogues 6 and 8. This observation is rather counter‐intuitive since compounds 3 and 5 have a higher cytotoxicity than 6 and 8. The lower uptake of the DIP complexes 3 and 5 might be due to the lower solubility of these complexes in the cell culture medium. However, taken together, the uptake and cytotoxicity data imply that 3 and 5 have a higher specific cytotoxic activity compared to the phen analogues 6 and 8, reasonably attributable to their higher lipophilicity.
ICP‐MS cellular uptake studies: CT‐26 cells were seeded at a density of 1×10^6. The next day, cells were treated with 5 μM of the corresponding complex diluted in the cell culture medium from a 10 mM stock solution in DMSO. After 2 h, cells were collected, counted, and stored at −80 °C. ICP‐MS samples were prepared as follows: samples were digested using 70 % nitric acid (1 mL, 60 °C, overnight) and then further diluted 1 : 100 (1 % HCl solution in MQ water) analysed using ICP‐MS. All ICP‐MS measurements were performed on an Agilent 7900 Quadrupole ICP‐MS located at the Institut de Physique du Globe de Paris (France). The monitored isotopes are 99 and 101 Ru. Daily, before the analytical sequence, an indium internal‐standard was injected after inline mixing with the samples to correct for signal drift and matrix effects. A set of calibration standards was analysed to confirm and model (through simple linear regression) the linear relationship between signal and concentration. The model was then used to convert measured sample counts to concentrations. Reported uncertainties were calculated using error propagation equations and considering the combination of standard deviation on replicated consecutive signal acquisitions (n=3), internal‐standard ratio and blank subtraction. The non‐linear term (internal‐standard ratio) was linearized using a first‐order Taylor series expansion to simplify error propagation. The amount of metal detected in the cell samples was transformed from ppb to μg of metal. Data were subsequently normalized to the number of cells and expressed as μmol of metal/number of cells.

[7] = Stability in human plasma (UV-Vis and HPLC); type: in vitro ADME; conditions: 37 °C
Procedure: The biological activity of anticancer drugs candidates is strongly influenced by their stability in DMSO, medium cell culture, and human plasma. For this reason, we performed stability studies of complexes 3–8 at 37 °C in DMSO and DMEM medium (Gibco) (Supporting Information Figures S1 ‐ S2). […] Finally, the stability of the compounds was investigated by incubating them in human plasma at 37 °C for 48 h, followed by UV‐Vis and HPLC analysis. […] After 48 h, only 15 % of the complex was still intact, as observed by HPLC (Supporting Information Figure S5).
Stock solutions of each complex (2 mM) and caffeine (2 mM) were prepared in dimethyl sulfoxide. 50 μL of both stock solutions (complex and caffeine) were added to 400 μL of human plasma, achieving 500 μL. The resulting solutions were incubated upon continuous gentle shaking (ca. 300 rpm) for 48 h at 37 °C. After this time, the incubation was ended by adding 1 mL of methanol. The mixture was centrifuged for 45 min at 3000 rpm and 4 °C. The solution was filtered through a 0.2 μm membrane filter and submitted to HPLC analysis, that were carried out on a Jupiter Proteo column (250×4.6 mm, 4 μm, flow rate: 1 mL/min). The solvents (HPLC grade) were Millipore water (solvent A) and acetonitrile (solvent B). […] The flow rate was 1 mL min^−1, and the chromatogram was detected at 215 nm.

different tumour cells = tested on: different tumour cells; parameters: method as in PMID 17199281; conditions: cited from earlier work
[8] = tested on: several cancer cell lines; parameters: method as in PMID 32319768; conditions: cited from earlier work
cancer cells = tested on: cancer cells; parameters: method as in PMID 25313823; conditions: 2 h incubation; cited from earlier work

Row | Compound | IC50 [1] [µM] | IC50 [3] [µM] | IC50 [2] [µM] | other results
1 | O=C([O-])C(=O)[O-].[Ru+2].c1ccc(-c2ccnc3c2ccc2c(-c4ccccc4)ccnc23)cc1.c1ccc(-c2ccnc3c2ccc2c(-c4ccccc4)ccnc23)cc1 [Compound 5, [Ru(DIP)2(η^2‐ox)]] | 21.1 ± 2.29 | 24.1 ± 2.5 | 14.5 ± 3 | lower uptake compared to the phen analogues 6 and 8 (CT‐26 cells [6]; CT‐26, 5 μM, 2 h): ca. 50%
2 | [Ru+2].c1ccc(-c2ccnc3c2ccc2c(-c4ccccc4)ccnc23)cc1.c1ccc(-c2ccnc3c2ccc2c(-c4ccccc4)ccnc23)cc1.c1ccc2nc3c4cccnc4c4ncccc4c3nc2c1 [[Ru(DIP)2(dppz)]^2+] |  |  |  | inhibition against tumour cells (different tumour cells): low inhibition
3 | N.N.[Cl][Pt][Cl] [cisplatin, reference compound] | 10.3 ± 1.14 | 1.94 ± 0.72 | 20.1 ± 3.91 | 
4 | [Ru(DIP)2(sq)](PF6) [Compound 2] |  |  |  | cytotoxicity [8]: nanomolar concentration range
5 | [Ru(DIP)2(η^2‐mal)] [Compound 3] | 4.92 ± 0.33 | 5.63 ± 0.34 | 5 ± 0.7 | lower uptake compared to the phen analogues 6 and 8 (CT‐26 cells [6]; CT‐26, 5 μM, 2 h): ca. 50%
6 | [Ru(bpy)(phpy)(dppz)]^+ |  |  |  | complex accumulated in nuclei (cancer cells): ~90%

The next lines start with results.

Row | IC50 [1] [µM] | IC50 [3] [µM] | Compound | IC50 [2] [µM] | other results
7 | 1.84 ± 0.23 | 0.37 ± 0.12 | Cc1occc(=O)c1[O-].F[P-](F)(F)(F)(F)F.[Ru+2].c1ccc(-c2ccnc3c2ccc2c(-c4ccccc4)ccnc23)cc1.c1ccc(-c2ccnc3c2ccc2c(-c4ccccc4)ccnc23)cc1 [Compound 1, [Ru(DIP)2(mlt)](PF6), reference compound] | 0.67 ± 0.14 | subcellular accumulation (HeLa cells): accumulate more in the nucleus than in mitochondria; effect on mitochondrial respiration (basal respiration, OCR profile) vs untreated cells (CT‐26 cells [4]): severe impairment of mitochondrial respiration
8 | 0.62 ± 0.19 | 0.41 ± 0.1 | CC(=O)C=C(C)[O-].[Cl-].[Ru+2].c1ccc(-c2ccnc3c2ccc2c(-c4ccccc4)ccnc23)cc1.c1ccc(-c2ccnc3c2ccc2c(-c4ccccc4)ccnc23)cc1 [Compound 4, [Ru(DIP)2(η^2‐acac)]Cl] | 0.5 ± 0.12 | fraction detected in the nucleus (of the total amount of Ru) (CT‐26 cells [5]): ca. 10%; localization in mitochondria (of the total amount of Ru) (CT‐26 cells [5]): ca. 50%; cellular uptake compared to neutral DIP complexes 3 and 5 (CT‐26 cells [6]; CT‐26): at least three times larger; cellular uptake compared to phen counterpart 7 (CT‐26 cells [6]; CT‐26, 5 μM, 2 h): almost three times larger; cellular uptake compared to reference complex 1 (CT‐26 cells [6]; CT‐26, 5 μM, 2 h): ca. three times larger; cellular uptake (amount of Ru inside the cells) (CT‐26 cells [6]; CT‐26, 5 μM, 2 h incubation): most significant uptake; selectivity towards CT‐26 and PC‐3 cancer cell lines compared to healthy cell line RPE‐1 ([3]; from IC50 values, 48 h): no selectivity; effect on mitochondrial respiration (basal respiration, OCR profile) vs untreated cells (CT‐26 cells [4]): severe impairment of mitochondrial respiration
9 | > 100 | > 100 | O=C([O-])CC(=O)[O-].[Ru+2].c1cnc2c(c1)ccc1cccnc12.c1cnc2c(c1)ccc1cccnc12 [Compound 6, [Ru(phen)2(η^2‐mal)]] | > 100 | stability in human plasma (UV‐vis spectra and HPLC chromatograms before and after incubation) ([7]; 48 h): chemical transformation; complex still intact (HPLC) ([7]; after 48 h): 15%
10 | > 100 | 10.3 ± 0.74 | CC(=O)C=C(C)[O-].[Cl-].[Ru+2].c1cnc2c(c1)ccc1cccnc12.c1cnc2c(c1)ccc1cccnc12 [Compound 7, [Ru(phen)2(η^2‐acac)]Cl] | > 100 | effect on mitochondrial respiration (basal respiration, OCR profile) vs untreated cells (CT‐26 cells [4]): severe impairment of mitochondrial respiration
11 | > 100 | > 100 | O=C([O-])C(=O)[O-].[Ru+2].c1cnc2c(c1)ccc1cccnc12.c1cnc2c(c1)ccc1cccnc12 [Compound 8, [Ru(phen)2(η^2‐ox)]] | > 100 | 
